Measurements taken from US20190388494A1, “THERAPEUTIC COMBINATIONS FOR THE TREATMENT OF BACTERIAL INFECTIONS” (SETLANCE S.R.L., priority 2017, published 2019).
≈ marks a conversion by molar mass, not a printed value. Like-named read-outs stand apart in the source and are kept apart here.

What was measured:
K. pneumoniae KKBO-4 [1] = test: microbe, parasite or virus in culture; format: cell-based; conditions: Klebsiella pneumoniae, KKBO4
Experimental: (§1) Activity of SET-M33 and antibiotics was evaluated on six well characterized clinical strains. The strains were selected according to their resistance phenotypes and genotypes.
(§2) MICs were determined using a standard broth microdilution assay according to the guidelines of the Clinical and Laboratory Standards Institute.

A. baumannii N50 [2] = test: microbe, parasite or virus in culture; format: cell-based; conditions: Acinetobacter baumannii
Experimental: as §1, §2

K. pneumoniae 044-R [3] = test: microbe, parasite or virus in culture; format: cell-based; conditions: Klebsiella pneumoniae; agent alone; K. pneumoniae 044-R (XDR, KPC, colR)
Experimental: as §1, §2

P. aeruginosa AV65 [4] = test: Antimicrobial activity in combination, checkerboard method; format: cell-based, Pseudomonas aeruginosa; conditions: for MIC in combination, ATB: antimicrobial agent in combination with SET-M33
Experimental: as §1
(§3) Antimicrobial activity in combination was evaluated, in duplicate for each of the six strains, with the checkerboard method using cation-adjusted Mueller-Hinton broth (MHB) in 96-well microtiter plates (Sarstedt, Inc., Newton, N.C.). Assays were performed using a final bacterial inoculum of 5×10^4 CFU/well in a final volume of 100 μl. Results were recorded after 20 h of incubation at 35° C. The total fractional inhibitory concentration (ΣFIC) for each antibiotic combination was calculated according to EUCAST definitive document E.Def 1.2 [16] as follows: ΣFIC equals FIC of agent A plus FIC of agent B, where the FIC of agent A or B is the MIC of agent A or B in the presence of the other divided by the MIC of agent A or B alone. Results were interpreted according to the following definition: a ΣFIC of ≤0.5 indicated synergism, a ΣFIC of >0.5 to 1 indicated additivity, a ΣFIC of >1 to <2 indicated indifference, and a ΣFIC of ≥2 antagonism.

P. aeruginosa 854 [5] = test: as above; format: cell-based, Pseudomonas aeruginosa; conditions: for MIC in combination, ATB: antimicrobial agent in combination with SET-M33
Experimental: as §1, §3

K. pneumoniae KKBO-4 [6] = test: as above; format: cell-based, Klebsiella pneumoniae; conditions: for MIC in combination, ATB: antimicrobial agent in combination with SET-M33
Experimental: as §1, §3

K. pneumoniae 044-R [7] = test: as above; format: cell-based, Klebsiella pneumoniae; conditions: for MIC in combination, ATB: antimicrobial agent in combination with SET-M33
Experimental: as §1, §3

P. aeruginosa 854 [8] = test: microbe, parasite or virus in culture; format: cell-based, Pseudomonas aeruginosa
Experimental: as §1, §2

P. aeruginosa AV65 [9] = test: MIC, standard broth microdilution; format: cell-based; conditions: Pseudomonas aeruginosa
Experimental: as §1, §2

A. baumannii VA566/00 [10] = test: MIC, standard broth microdilution; format: cell-based; conditions: Acinetobacter baumannii
Experimental: as §1, §2

A. baumannii N50 [11] = test: Antimicrobial activity in combination, checkerboard method; format: cell-based, Acinetobacter baumannii; conditions: for MIC in combination, ATB: antimicrobial agent in combination with SET-M33
Experimental: as §1, §3

A. baumannii VA566/00 [12] = test: as above; format: cell-based, Acinetobacter baumannii; conditions: for MIC in combination, ATB: antimicrobial agent in combination with SET-M33
Experimental: as §1, §3

[13] = test system: 6 MDR/XDR Gram-negative strains; test: Checkerboard combination testing, summary over the six strains; format: cell-based
Experimental: as §1, §3

[14] = test system: 6 MDR/XDR Gram-negative strains; format: cell-based
Experimental: as §1, §2

[15] = agent alone, A. baumannii N50 (MDR, OXA-24, colR), read-out: MIC
[16] = Pseudomonas aeruginosa, agent alone, P. aeruginosa 854 (XDR, VIM-1), read-out: MIC
[17] = agent alone, K. pneumoniae KKBO-4 (XDR, KPC, colR), read-out: MIC
[18] = SET-M33 in combination with aztreonam
[19] = SET-M33 in combination with meropenem
[20] = SET-M33 in combination with rifampin
[21] = SET-M33 in combination with tobramycin

For `CO[C@H]1/C=C/O[C@@]2(C)Oc3c(C)c(O)c4c(O)c(c(/C=N/N5CCN(C)CC5)c(O)c4c3C2=O)NC(=O)/C(C)=C\C=C\[C@H](C)[C@H](O)[C@@H](C)[C@@H](O)[C@@H](C)[C@H](OC(C)=O)[C@@H]1C` [rifampin], the MIC (K. pneumoniae KKBO-4 [1]) was 128 µg/mL (≈ 156 µM), the MIC (A. baumannii N50 [2]; [15]) was 64 µg/mL (≈ 77.8 µM) and the MIC (K. pneumoniae 044-R [3]) was 64 µg/mL (≈ 77.8 µM). The “MIC in combination, ATB” value (P. aeruginosa AV65 [4]) was 64 µg/mL, the “MIC in combination, ATB” value (P. aeruginosa 854 [5]) was 8 µg/mL and the “MIC in combination, ATB” value (K. pneumoniae KKBO-4 [6]) was 32 µg/mL. The “MIC in combination, ATB” value (K. pneumoniae 044-R [7]) was 16 µg/mL, the MIC (P. aeruginosa 854 [8]; [16]) was 32 µg/mL (≈ 38.9 µM) and the MIC (P. aeruginosa AV65 [9]; AV65) was 128 µg/mL (≈ 156 µM). The MIC (A. baumannii VA566/00 [10]; VA566/00) was 256 µg/mL (≈ 311 µM), the “MIC in combination, ATB” value (A. baumannii N50 [11]) was 4 µg/mL and the “MIC in combination, ATB” value (A. baumannii VA566/00 [12]) was 2 µg/mL.
`C[C@@H](O)[C@H]1C(=O)N2C(C(=O)O)=C(S[C@@H]3CN[C@H](C(=O)N(C)C)C3)[C@H](C)[C@H]12` [meropenem] gave an MIC (K. pneumoniae KKBO-4 [1]; [17]) of 64 µg/mL (≈ 167 µM), an MIC (A. baumannii N50 [2]; N50) of 256 µg/mL (≈ 668 µM) and an MIC (K. pneumoniae 044-R [3]) of 64 µg/mL (≈ 167 µM). The “MIC in combination, ATB” value (P. aeruginosa AV65 [4]) was 64 µg/mL, the “MIC in combination, ATB” value (P. aeruginosa 854 [5]) was 16 µg/mL and the “MIC in combination, ATB” value (K. pneumoniae KKBO-4 [6]) was 32 µg/mL. For the same compound, the “MIC in combination, ATB” value (K. pneumoniae 044-R [7]) was 32 µg/mL, the MIC (P. aeruginosa 854 [8]; Pseudomonas aeruginosa, 854) was 512 µg/mL (≈ 1340 µM) and the MIC (P. aeruginosa AV65 [9]; AV65) was 256 µg/mL (≈ 668 µM). For the same compound, the MIC (A. baumannii VA566/00 [10]; VA566/00) was 512 µg/mL (≈ 1340 µM), the “MIC in combination, ATB” value (A. baumannii N50 [11]) was 64 µg/mL and the “MIC in combination, ATB” value (A. baumannii VA566/00 [12]) was 4 µg/mL.
With `CC[C@H](C)[C@H](NC(=O)[C@H](CCCCN)NC(=O)[C@@H](N)CCCCN)C(=O)N[C@@H](CCCNC(=N)N)C(=O)N[C@H](C(=O)N[C@@H](CCCNC(=N)N)C(=O)N[C@@H](CC(C)C)C(=O)N[C@@H](CO)C(=O)N[C@@H](C)C(=O)O)C(C)C` (stereo in doubt) [SET-M33] the “interaction in combination (ΣFIC interpretation)” value (shortened to “interaction in combination”) ([13]; SET-M33 in combination with aztreonam, colistin-resistant strains of K. pneumoniae) was “synergistic activity”, the “interaction in combination” value ([13]; SET-M33 in combination with ciprofloxacin, data not shown) was “Additivity” and the “interaction in combination” value ([13]; SET-M33 in combination with rifampin, colistin-resistant strains of K. pneumoniae) was “synergistic activity”. For the same compound, the “interaction in combination” value ([13]; SET-M33 in combination with tobramycin, one of the A. baumannii strains) was “Synergy”, the “effect of combination on SET-M33 MIC values” ([13]; when a synergistic effect was present, e.g. with rifampin, aztreonam and tobramycin) was “moderately affected” and the “effect of combination on SET-M33 MIC values” ([13]; when the effect was additive or indifferent) was “not affected”. For the same compound, the “MIC in combination, SET-M33” value (P. aeruginosa AV65 [4]; [18]) was 8 µg/mL, the “MIC in combination, SET-M33” value (P. aeruginosa AV65 [4]; [19]) was 4 µg/mL and the “MIC in combination, SET-M33” value (P. aeruginosa AV65 [4]; [20]) was 8 µg/mL. The “MIC in combination, SET-M33” value (P. aeruginosa AV65 [4]; [21]) was 2 µg/mL, the “MIC in combination, SET-M33” value (P. aeruginosa 854 [5]; [18]) was 8 µg/mL and the “MIC in combination, SET-M33” value (P. aeruginosa 854 [5]; [19]) was 8 µg/mL. The “MIC in combination, SET-M33” value (P. aeruginosa 854 [5]; [20]) was 8 µg/mL, the “MIC in combination, SET-M33” value (P. aeruginosa 854 [5]; [21]) was 8 µg/mL and the “MIC in combination, SET-M33” value (K. pneumoniae KKBO-4 [6]; [18]) was 8 µg/mL. The “MIC in combination, SET-M33” value (K. pneumoniae KKBO-4 [6]; [19]) was 8 µg/mL, the “MIC in combination, SET-M33” value (K. pneumoniae KKBO-4 [6]; [20]) was 4 µg/mL and the “MIC in combination, SET-M33” value (K. pneumoniae KKBO-4 [6]; [21]) was 16 µg/mL. The “MIC in combination, SET-M33” value (K. pneumoniae 044-R [7]; [18]) was 8 µg/mL, the “MIC in combination, SET-M33” value (K. pneumoniae 044-R [7]; [19]) was 8 µg/mL and the “MIC in combination, SET-M33” value (K. pneumoniae 044-R [7]; [20]) was 4 µg/mL. For the same compound, the “MIC in combination, SET-M33” value (K. pneumoniae 044-R [7]; [21]) was 16 µg/mL, the MIC values [14] was 4 to 32 µg/mL and the MIC (P. aeruginosa 854 [8]; 854) was 16 µg/mL (≈ 14.9 µM). For the same compound, the “MIC in combination, SET-M33” value (A. baumannii N50 [11]; [18]) was 4 µg/mL, the “MIC in combination, SET-M33” value (A. baumannii N50 [11]; [19]) was 4 µg/mL and the “MIC in combination, SET-M33” value (A. baumannii N50 [11]; [20]) was 8 µg/mL. For the same compound, the “MIC in combination, SET-M33” value (A. baumannii N50 [11]; [21]) was 8 µg/mL, the “MIC in combination, SET-M33” value (A. baumannii VA566/00 [12]; [18]) was 4 µg/mL and the “MIC in combination, SET-M33” value (A. baumannii VA566/00 [12]; [19]) was 4 µg/mL. For the same compound, the “MIC in combination, SET-M33” value (A. baumannii VA566/00 [12]; [20]) was 4 µg/mL and the “MIC in combination, SET-M33” value (A. baumannii VA566/00 [12]; [21]) was 8 µg/mL.
For `NC[C@H]1O[C@H](O[C@H]2[C@H](O)[C@@H](O[C@H]3O[C@H](CO)[C@@H](O)[C@H](N)[C@H]3O)[C@H](N)C[C@@H]2N)[C@H](N)C[C@@H]1O` [tobramycin], the MIC (K. pneumoniae KKBO-4 [1]; [17]) was 32 µg/mL (≈ 68.4 µM), the MIC (A. baumannii N50 [2]; [15]) was 8 µg/mL (≈ 17.1 µM) and the MIC (K. pneumoniae 044-R [3]) was 32 µg/mL (≈ 68.4 µM). The “MIC in combination, ATB” value (P. aeruginosa AV65 [4]) was 128 µg/mL, the “MIC in combination, ATB” value (P. aeruginosa 854 [5]) was 256 µg/mL and the “MIC in combination, ATB” value (K. pneumoniae KKBO-4 [6]) was 16 µg/mL. For the same compound, the “MIC in combination, ATB” value (K. pneumoniae 044-R [7]) was 16 µg/mL, the MIC (P. aeruginosa 854 [8]; [16]) was 256 µg/mL (≈ 548 µM) and the MIC (P. aeruginosa AV65 [9]; AV65) was 128 µg/mL (≈ 274 µM). The MIC (A. baumannii VA566/00 [10]; agent alone, A. baumannii VA566/00 (MDR, OXA-24), read-out: MIC) was 16 µg/mL (≈ 34.2 µM), the “MIC in combination, ATB” value (A. baumannii N50 [11]) was 0.5 µg/mL and the “MIC in combination, ATB” value (A. baumannii VA566/00 [12]) was 4 µg/mL.
`C[C@H]1[C@H](NC(=O)/C(=N\OC(C)(C)C(=O)O)c2csc(N)n2)C(=O)N1S(=O)(=O)O` [aztreonam] was tested, and the MIC (A. baumannii N50 [2]; N50) was 128 µg/mL (≈ 294 µM), the “MIC in combination, ATB” value (P. aeruginosa AV65 [4]) was 1 µg/mL and the “MIC in combination, ATB” value (P. aeruginosa 854 [5]) was 64 µg/mL. For the same compound, the MIC (P. aeruginosa 854 [8]; Pseudomonas aeruginosa, 854) was 128 µg/mL (≈ 294 µM), the MIC (P. aeruginosa AV65 [9]; agent alone, P. aeruginosa AV65 (XDR, IMP-13), read-out: MIC) was 32 µg/mL (≈ 73.5 µM) and the MIC (A. baumannii VA566/00 [10]; VA566/00) was 512 µg/mL (≈ 1180 µM). For the same compound, the “MIC in combination, ATB” value (A. baumannii N50 [11]) was 32 µg/mL and the “MIC in combination, ATB” value (A. baumannii VA566/00 [12]) was 16 µg/mL.
